Reference: publication PMC6851892 (Clinical Pharmacology in Drug Development, 2019)

Legend:
[1] = cited from earlier work
[2] = test system: CYP enzymes or transporters; details: in vitro; cited from earlier work
[3] = cited from earlier work; remark: listed apart in the source
[4] = assay type: in vivo, human (healthy subjects); details: human, plasma, oral
[5] = primary circulating metabolites of ertugliflozin; cited from earlier work
[6] = cited from earlier work; remark: listed apart in the source
[7] = oral radioactive ertugliflozin dose

Structure (SMILES)	Unmetabolized drug recovered in urine, % of the administered dose [1]	AUC dose proportionality ([1]; dose range of 0.5 to 300 mg)	Median time to maximum plasma concentration (Tmax) ([1]; fed state, oral)	Excretion of radioactivity in feces, % of the dose [1, 7]	Excretion of radioactivity in urine, % of the dose [1, 7]	Inhibition or induction of CYP enzymes or transporters [2]	Biopharmaceutical Classification System class [3]	Tmax [4]	half-life [4]	Pharmacological activity [5]	Excreted in feces [6]	Excreted mostly unmetabolized in urine [6]	Renal clearance [6]	AUC dose dependence ([6]; healthy subjects)
CCOc1ccc(Cc2cc([C@]34OC[C@](CO)(O3)[C@@H](O)[C@H](O)[C@H]4O)ccc2Cl)cc1 [Ertugliflozin]	1.5%	increases in a dose‐proportional manner	~2 h	40.9%	50.2%	do not inhibit or induce CYP enzymes or transporters	class 1	~1 h	11.2 to 13.8 h	–	–	–	–	–
CCOc1ccc(Cc2cc([C@]34OC[C@](CO)(O3)[C@@H](O)[C@H](O[C@@H]3O[C@H](C(=O)O)[C@@H](O)[C@H](O)[C@H]3O)[C@H]4O)ccc2Cl)cc1 [M5c, 3‐O‐β glucuronide]	–	–	–	–	–	–	–	–	–	pharmacologically inactive	–	–	–	–
N[C@@H](CC(=O)N1CCn2c(nnc2C(F)(F)F)C1)Cc1cc(F)c(F)cc1F [Sitagliptin]	–	–	–	–	–	–	class 1	2.2 to 4 h	11.2 to 12.5 h	–	13%	87%	approximately 388 mL/min	increases in an approximately dose‐dependent manner
